Experimental data reported in ChEMBL document CHEMBL4251644, “Synthesis and biological characterization of novel rose bengal derivatives with improved amphiphilicity for sono-photodynamic therapy” (Eur J Med Chem, 2018).
Activity calls are given as the source filed them. No cut-off for these calls is given here.

How the values were obtained:
[1] = Octanol-water partition coefficient, log P of the compound after 10 mins; type: physicochemical
[2] = Drug uptake in human HepG2 cells at 5 uM after 2 hrs by confocal microscopy; type: ADME, cell-based; conditions: hepg2, 2 h
[3] = Drug uptake in mouse B16F10 cells assessed as localization in mitochondria at 5 uM after 1.5 hrs by MitoTracker Green staining-based fluorescence assay; type: ADME; conditions: b16-f10, 1.5 h
HepG2 [4] = test: Toxicity in human HepG2 cells up to 5 uM incubated in dark for 24 hrs by MTT assay; type: cell-based; conditions: hepg2, 24 h
MCF7 [5] = test: Toxicity in human MCF7 cells up to 5 uM incubated in dark for 24 hrs by MTT assay; type: cell-based; conditions: mcf7, 24 h
B16-F10 [6] = test: Toxicity in mouse B16F10 cells up to 5 uM incubated in dark for 24 hrs by MTT assay; type: cell-based; conditions: b16-f10, 24 h
HepG2 [7] = test: Photodynamic anticancer activity in human HepG2 cells preincubated for 2 hrs followed by light exposure at 27 J/cm2 for 30 mins and subsequent incubation for 24 hrs by MTT assay; conditions: HepG2, light or radiation study
MCF7 [8] = test: Photodynamic anticancer activity in human MCF7 cells preincubated for 2 hrs followed by light exposure at 27 J/cm2 for 30 mins and subsequent incubation for 24 hrs by MTT assay; conditions: MCF7, light or radiation study
B16-F10 [9] = test: Photodynamic anticancer activity in mouse B16F10 cells preincubated for 2 hrs followed by light exposure at 27 J/cm2 for 30 mins and subsequent incubation for 24 hrs by MTT assay; conditions: B16-F10, light or radiation study
HepG2 [10] = test: (§1) In vitro sonodynamic anticancer activity against human HepG2 cells at 25 uM preincubated for 2 hrs followed by exposure to ultrasound at 1.0 MHz and 2 W/cm2 intensity for 3 mins and subsequent incubation for 24 hrs by MTT assay; type: functional, cell-based
[11] = Drug uptake in mouse B16F10 cells assessed as localization in lysosomes at 5 uM after 1.5 hrs by LysoTracker staining-based fluorescence assay; type: ADME, subcellular, Lysosome; conditions: b16-f10, 1.5 h
HepG2 [12] = test: as §1, with “sono-photodynamic” for “sonodynamic”, “0.5” for “25”, “mins followed by immediate irradiation with light at 27 J/cm2 for 30 mins” for “mins”; type: functional, cell-based
HepG2 [13] = test: Induction of intracellular ROS generation in human HepG2 cells at 1 uM preincubated for 2 hrs followed by light exposure at 27 J/cm2 for 30 mins by DCFH-DA staining-based fluorescence analysis; type: functional, cell-based
HepG2 [14] = test: Induction of intracellular ROS generation in human HepG2 cells at 1 uM preincubated for 2 hrs followed by exposure to ultrasound at 1.0 MHz and 2 W/cm2 intensity for 3 mins by DCFH-DA staining-based fluorescence analysis; type: functional, cell-based
HepG2 [15] = test: Induction of intracellular ROS generation in human HepG2 cells at 1 uM preincubated for 2 hrs followed by exposure to ultrasound at 1.0 MHz and 2 W/cm2 intensity for 3 mins followed by immediate irradiation with light at 27 J/cm2 for 30 mins by DCFH-DA staining-based fluorescence analysis; type: functional, cell-based

| SMILES | logP at 10 min [1] | Drug uptake [2] | Drug uptake [3] | IC50 (HepG2 [7]) [nM] | IC50 (MCF7 [8]) [nM] | IC50 (B16-F10 [9]) [nM] | Drug uptake [11] | Activity (HepG2 [4]) | Activity (MCF7 [5]) | Activity (B16-F10 [6]) | Activity (HepG2 [10]) | Activity (HepG2 [12]) | Activity (HepG2 [13]) | Activity (HepG2 [14]) | Activity (HepG2 [15]) |
| --- | --- | --- | --- | --- | --- | --- | --- | --- | --- | --- | --- | --- | --- | --- | --- |
| O=C(CCCCCCCOC(=O)c1c(Cl)c(Cl)c(Cl)c(Cl)c1-c1c2cc(I)c(=O)c(I)c-2oc2c(I)c(O)c(I)cc12)Nc1cccc2ccccc12 | 0.94 | Active | Active | 880 | 1260 | 1440 | Active | Non-Toxic | Non-Toxic | Non-Toxic | inactive | – | – | – | – |
| COCCOCCOCCOCCOC(=O)CCCCCCCOC(=O)c1c(Cl)c(Cl)c(Cl)c(Cl)c1-c1c2cc(I)c(=O)c(I)c-2oc2c(I)c(O)c(I)cc12 | 0.8 | Active | Active | 670 | 1260 | 1230 | Active | Non-Toxic | Non-Toxic | Non-Toxic | Active | – | – | – | – |
| O=C([O-])c1c(Cl)c(Cl)c(Cl)c(Cl)c1-c1c2cc(I)c(=O)c(I)c-2oc2c(I)c([O-])c(I)cc12.[Na+].[Na+] [ROSE BENGAL SODIUM] | -0.56 | Active | Active | > 5000 | > 5000 | > 5000 | Active | Non-Toxic | Non-Toxic | Non-Toxic | – | – | – | – | – |
| O=C(CCCCCCCOC(=O)c1c(Cl)c(Cl)c(Cl)c(Cl)c1-c1c2cc(I)c(=O)c(I)c-2oc2c(I)c(O)c(I)cc12)Nc1cccc2cccnc12 | 1.21 | Active | Active | 610 | 850 | 1190 | Active | Non-Toxic | Non-Toxic | Non-Toxic | inactive | – | – | – | – |

Further compounds by falling IC50 (HepG2 [7]), results first:

| logP at 10 min [1] | Drug uptake [2] | Drug uptake [3] | IC50 (HepG2 [7]) [nM] | IC50 (MCF7 [8]) [nM] | IC50 (B16-F10 [9]) [nM] | Drug uptake [11] | SMILES | Activity (HepG2 [4]) | Activity (MCF7 [5]) | Activity (B16-F10 [6]) | Activity (HepG2 [10]) | Activity (HepG2 [12]) | Activity (HepG2 [13]) | Activity (HepG2 [14]) | Activity (HepG2 [15]) |
| --- | --- | --- | --- | --- | --- | --- | --- | --- | --- | --- | --- | --- | --- | --- | --- |
| 0.91 | Active | Active | 2150 | 2880 | 2170 | Active | O=C(O)CCCCCCCOC(=O)c1c(Cl)c(Cl)c(Cl)c(Cl)c1-c1c2cc(I)c(=O)c(I)c-2oc2c(I)c(O)c(I)cc12 | Non-Toxic | Non-Toxic | Non-Toxic | – | – | – | – | – |
| 0.92 | Active | Active | 280 | 460 | 780 | Active | COCCOCCOC(=O)CCCCCCCOC(=O)c1c(Cl)c(Cl)c(Cl)c(Cl)c1-c1c2cc(I)c(=O)c(I)c-2oc2c(I)c(O)c(I)cc12 | Non-Toxic | Non-Toxic | Non-Toxic | Active | Active | Active | inactive | Active |
